Results reported in paper PMC6271978, “1H-2,3-Dihydroperimidine Derivatives: A New Class of Potent Protein Tyrosine Phosphatase 1B Inhibitors” (Molecules, 2013).

Columns and labels:
PTP1B (GST-PTP1B) = biological target: T1, PTP1B (GST-PTP1B) (Homo sapiens, UniProt P18031); test: PTP1B inhibition, colorimetric pNPP assay; assay type: biochemical; conditions: pNPP substrate; for inhibition at 20 µg/mL: PTP1B, compound at 20 μg/mL
T1 sequence (P18031 1-435): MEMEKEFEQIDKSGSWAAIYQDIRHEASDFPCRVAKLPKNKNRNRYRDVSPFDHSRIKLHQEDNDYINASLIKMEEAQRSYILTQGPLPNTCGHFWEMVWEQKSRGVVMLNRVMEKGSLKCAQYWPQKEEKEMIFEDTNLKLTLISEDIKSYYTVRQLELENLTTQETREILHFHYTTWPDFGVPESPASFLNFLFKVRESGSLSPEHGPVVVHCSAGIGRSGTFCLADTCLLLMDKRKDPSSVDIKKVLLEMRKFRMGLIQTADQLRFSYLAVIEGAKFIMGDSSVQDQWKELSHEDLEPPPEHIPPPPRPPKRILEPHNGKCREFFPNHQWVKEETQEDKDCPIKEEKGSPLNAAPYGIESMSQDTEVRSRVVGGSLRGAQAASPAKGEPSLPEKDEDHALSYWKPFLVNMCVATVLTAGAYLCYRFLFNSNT

TCPTP (GST-TCPTP) = biological target: T2, TCPTP (GST-TCPTP) (Homo sapiens, UniProt P17706); test: TCPTP inhibition, colorimetric pNPP assay; assay type: biochemical; conditions: for IC50: pNPP substrate, means ± SD of three replications, PC = oleanolic acid; for TCPTP/PTP1B (selectivity, fold): ratio of IC50 TCPTP to IC50 PTP1B
T2 sequence (P17706 1-415): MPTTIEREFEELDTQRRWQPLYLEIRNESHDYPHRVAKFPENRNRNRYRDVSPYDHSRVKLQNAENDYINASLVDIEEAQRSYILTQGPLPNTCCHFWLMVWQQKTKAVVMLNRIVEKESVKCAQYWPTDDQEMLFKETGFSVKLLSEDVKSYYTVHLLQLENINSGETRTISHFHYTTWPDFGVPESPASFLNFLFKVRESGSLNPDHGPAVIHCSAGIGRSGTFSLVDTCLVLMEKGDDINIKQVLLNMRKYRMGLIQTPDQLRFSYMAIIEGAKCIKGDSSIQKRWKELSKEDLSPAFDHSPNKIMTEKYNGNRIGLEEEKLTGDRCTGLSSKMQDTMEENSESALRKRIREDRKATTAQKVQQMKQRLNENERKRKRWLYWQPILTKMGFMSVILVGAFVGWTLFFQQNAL
Method: (§1) In addition to potency improvements, we investigated the selectivity of three representative compounds, namely, 1, 46 and 49 against other PTPs (TCPTP, SHP-1, SHP-2, LAR). […] Besides TCPTP, we tested the inhibitory activity of these compounds on other three homogenous enzymes SHP-1, SHP-2, and LAR [25].
(§2) A colorimetric assay to measure inhibition against PTP1B and TCPTP was performed in 96-well plates. Briefly, the tested compounds were solubilized in DMSO and serially diluted into concentrations for the inhibitory test. The assays were carried out in a final volume of 100 μL containing 50 mmol/L MOPS, pH 6.5, 2 mmol/L pNPP, 30 nmol/L GST-PTP1B or GST-TCPTP,and 2% DMSO, and the catalysis of pNPP was continuously monitored on a SpectraMax 340 microplate reader at 405 nm for 3 min at 30 °C. The IC50 value was calculated from the nonlinear curve fitting of the percent inhibition [inhibition (%)] vs. the inhibitor concentration using the Equation (1): Inhibition (%) = 100/[1 + (IC50/[I]k)] (1) where k is the Hill coefficient. To study the inhibition on the other PTPase family members, SHP1, SHP2 and LAR were prepared and assays were performed according to procedures described previously. Briefly, the enzymatic activity of the SHP1, SHP2 and LARwere determined at 30 °C by monitoring the dephosphorylation of substrate 3-o-methylfluorescein phosphate (OMFP), product was then detected at a 485 nm excitation wavelength and 530 nm emission wavelength by the EnVision multilabe plate reader (Perkin-Elmer Life Sciences, Boston, MA, USA). The assays were carried out in a final volume of 50 μL containing 50 mmol/L MOPS, pH 6.8, 10 μmol/L OMFP, 20 nmol/L recombinant enzyme, 2 mmol/L dithiothreitol , 1 mmol/L EDTA, and 2% DMSO. The initial rate of the dephosphorylation was presented by the early linear region of the enzymatic reaction kinetic curve, the inhibitory activity of the compound was continuously monitored.

SHP-1 = biological target: T3, SHP-1 (Homo sapiens, UniProt P29350); test: SHP-1 inhibition, OMFP substrate assay; assay type: biochemical; conditions: for IC50: OMFP substrate, means ± SD of three replications, PC = Na3VO4
T3 construct: made in house
T3 sequence (P29350 whole entry): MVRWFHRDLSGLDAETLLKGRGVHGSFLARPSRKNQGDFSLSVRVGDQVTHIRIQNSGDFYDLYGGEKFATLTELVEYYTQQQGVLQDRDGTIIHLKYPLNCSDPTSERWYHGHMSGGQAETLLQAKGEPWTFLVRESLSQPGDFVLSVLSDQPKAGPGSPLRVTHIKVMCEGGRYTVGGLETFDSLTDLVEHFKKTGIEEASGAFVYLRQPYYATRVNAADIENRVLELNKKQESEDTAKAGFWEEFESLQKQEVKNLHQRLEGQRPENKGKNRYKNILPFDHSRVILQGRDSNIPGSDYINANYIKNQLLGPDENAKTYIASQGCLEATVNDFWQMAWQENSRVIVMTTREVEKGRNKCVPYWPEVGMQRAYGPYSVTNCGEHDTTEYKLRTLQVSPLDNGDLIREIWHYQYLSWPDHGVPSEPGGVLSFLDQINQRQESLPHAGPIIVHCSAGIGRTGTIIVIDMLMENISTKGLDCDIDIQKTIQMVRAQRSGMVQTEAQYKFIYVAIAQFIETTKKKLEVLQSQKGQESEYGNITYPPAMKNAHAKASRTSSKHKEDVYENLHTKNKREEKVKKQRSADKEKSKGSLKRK
Method: as §1, §2

SHP-2 = biological target: T4, SHP-2 (Homo sapiens, UniProt Q06124); test: SHP-2 inhibition, OMFP substrate assay; assay type: biochemical; conditions: for IC50: OMFP substrate, means ± SD of three replications, PC = Na3VO4
T4 construct: made in house
T4 sequence (Q06124 1-593): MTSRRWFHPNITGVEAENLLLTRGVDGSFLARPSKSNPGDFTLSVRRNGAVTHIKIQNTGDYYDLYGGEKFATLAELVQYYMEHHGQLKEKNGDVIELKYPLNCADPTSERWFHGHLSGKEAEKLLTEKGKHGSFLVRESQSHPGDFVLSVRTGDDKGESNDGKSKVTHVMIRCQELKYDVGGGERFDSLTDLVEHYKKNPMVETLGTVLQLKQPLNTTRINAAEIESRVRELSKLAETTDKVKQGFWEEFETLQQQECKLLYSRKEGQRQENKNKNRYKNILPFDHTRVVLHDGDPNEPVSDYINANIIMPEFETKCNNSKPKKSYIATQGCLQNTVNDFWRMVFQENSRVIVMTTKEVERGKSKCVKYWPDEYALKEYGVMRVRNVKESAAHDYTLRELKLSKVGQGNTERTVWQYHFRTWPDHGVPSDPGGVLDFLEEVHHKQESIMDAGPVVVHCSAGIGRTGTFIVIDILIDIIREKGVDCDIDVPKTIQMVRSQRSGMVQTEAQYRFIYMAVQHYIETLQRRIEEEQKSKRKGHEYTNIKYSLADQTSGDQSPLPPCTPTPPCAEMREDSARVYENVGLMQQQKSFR
Method: as §1, §2

LAR = biological target: T5, LAR (Homo sapiens, UniProt P10586); test: LAR inhibition, OMFP substrate assay; assay type: biochemical; conditions: NA = no activity (inhibitory ratio lower than 50% at the dose of 20 μg/mL), PC = Na3VO4
T5 sequence (P10586 1352-1607 limits assumed): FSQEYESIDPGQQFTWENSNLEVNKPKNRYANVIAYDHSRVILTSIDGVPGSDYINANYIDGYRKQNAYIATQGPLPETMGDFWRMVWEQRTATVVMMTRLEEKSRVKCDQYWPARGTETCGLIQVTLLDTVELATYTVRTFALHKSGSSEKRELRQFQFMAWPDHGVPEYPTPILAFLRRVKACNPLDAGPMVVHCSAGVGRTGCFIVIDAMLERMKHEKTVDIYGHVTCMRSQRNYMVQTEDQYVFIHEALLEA
Method: as §1
as §2, with “To study the inhibition on the other PTPase family members, SHP1, SHP2 and LAR were prepared and assays were performed according to procedures described previously.” left out, “The assays were carried out in a final volume of 50 μL containing 50 mmol/L MOPS, pH 6.8, 10 μmol/L OMFP, 20 nmol/L recombinant enzyme, 2 mmol/L dithiothreitol , 1 mmol/L EDTA, and 2% DMSO. The initial rate of the dephosphorylation was presented by the early linear region of the enzymatic reaction kinetic curve, the inhibitory activity of the compound was continuously monitored.” left out

[1] = means ± SD of three replications, OA/PC = oleanolic acid positive control

inhibition at 20 µg/mL (PTP1B (GST-PTP1B)) [%] | IC50 (PTP1B (GST-PTP1B); [1]) [µM] | IC50 (TCPTP (GST-TCPTP)) [µM] | TCPTP/PTP1B (selectivity, fold) (TCPTP (GST-TCPTP)) | IC50 (SHP-1) [µM] | IC50 (SHP-2) [µM] | IC50 PTP1B (PTP1B (GST-PTP1B); [1]) | selectivity for PTP1B over SHP-1 (SHP-1; from IC50 values) | selectivity for PTP1B over SHP-2 (SHP-2; from IC50 values) | IC50 LAR (LAR) | melting point [°C] | Compound
98.6 | 8.34 ± 1.07 | 4.83 ± 0.9 | 0.58 | 23.3 ± 2.03 | 31.2 ± 7.72 | – | – | – | – | – | O=C(O)c1ccc(C2Nc3cccc4cccc(c34)N2)cc1 [Compound 1, 4-(2,3-dihydro-1H-perimidin-2-yl)benzoic acid]
99.4 | 0.59 ± 0.05 | 1.24 ± 0.12 | 2.10 | 2.72 ± 0.3 | 2.5 ± 0.22 | submicromolar | about 4 fold | about 4 fold | no visible activities | 86.7 to 88.4 | O=C(O)CCCCCNC(=O)c1ccc(C2Nc3cccc4cccc(c34)N2)nc1 [Compound 49, 6-[6-(2,3-Dihydro-1H-perimidin-2-yl)nicotinamido]hexanoic acid]
